Measurements taken from patent US20220007644A1, “COMPOSITIONS COMPRISING PYRIDINE CARBOXYLATE HERBICIDES WITH PHOTOSYSTEM II AND OPTIONAL HPPD INHIBITOR HERBICIDES” (Corteva Agriscience LLC, priority 2018, published 2022).

Tests used:
Type in all cases: in vivo
Details in all cases: 140 g ai/ha alone
[1] = tested on: TRZAS, Triticum aestivum (spring wheat); experiment: Greenhouse postemergence phytotoxicity on crop (visual injury, 20-22 d)
From the text: (§1) Greenhouse Trial Methodology—Evaluation of Postemergence Herbicidal Effect
(§2) Seeds of the desired test plant species were planted in a 90:10% v/v (volume/volume) mixture of PRO-MIX® BX (Premier Tech Horticulture, Quakertown, Pa., USA) and PROFILE®GREENS GRADE™ (Profile Products LLC, Buffalo Grove, Ill., USA) planting mixture, which typically has a pH of 5.2 to 6.2 and an organic matter content of at least 50 percent, in plastic pots with a surface area of 103.2 square centimeters (cm^2). In some aspects, to help ensure good germination and healthy plants, a fungicide treatment and/or other chemical or physical treatment was applied. The plants were grown for 7-36 days (d) in a greenhouse with an approximate 14-hour (h) photoperiod which was maintained at about 23° C. during the day and 22° C. during the night. Nutrients and water were added on a regular basis and supplemental lighting was provided with overhead metal halide 1000-Watt lamps as necessary. The plants were employed for testing when they reached the second or third true leaf stage.
(§3) Emulsifiable concentrates of each of each pyridine carboxylate herbicide (Compound A or Compound B) were prepared at 100 grams acid equivalent per liter (g ae/L). The emulsifiable concentrates also included a safener, cloquintocet-mexyl, at 120 grams active ingredient per liter (g ai/L), unless otherwise noted below. An aliquot of each emulsifiable concentrate was placed in a 25 mL glass vial and diluted with an aqueous mixture of 1.25% (v/v) ACTIROB® B esterified rapeseed oil (Bayer Crop Science, Research Triangle Park, N.C., USA) or MSO® Concentrate with LECI-TECH® methylated soybean oil (Loveland Products, Loveland, Colo., USA) to obtain concentrated stock solutions at the highest application rate for each herbicide, based upon a 12 milliliter (mL) application volume at a rate of 187 liters per hectare (L/ha). The concentrated stock solutions were further diluted with an aqueous mixture of 1.25% v/v ACTIROB® B or MSO® Concentrate with LECI-TECH® to obtain stock solutions at reduced application rates for each herbicide. Spray solutions of the herbicide combinations (Compound A or Compound B plus PS-II herbicide and optional HPPD herbicide) were prepared by adding weighed amounts or aliquots of the PS-II herbicide and optional HPPD herbicide to the stock solutions of Compound A or Compound B to form 12-mL spray solutions in two- or three-way combinations.
(§4) The spray solutions were applied to the plant material with an overhead Mandel track sprayer equipped with 8002E nozzles calibrated to deliver 187 L/ha over an application area of 0.503 square meters (m^2) at a spray height of 18 inches ([…] centimeters (cm)) above the average plant canopy. Control plants were sprayed in the same manner with the solvent blank. All pyridine carboxylate herbicide (component a) application rates are given as “g ae/ha” and all PS II inhibitor herbicide (component b) and HPPD inhibitor herbicide (component c) application rates are given as “g ai/ha.”
(§5) The treated plants and control plants were placed in a greenhouse as described above and watered by sub-irrigation to prevent wash-off of the test compounds. After 20-22 d, the condition of the test plants as compared with that of the control plants was determined visually and scored on a scale of 0 to 100 percent where 0 corresponds to no injury and 100 corresponds to complete kill.

[2] = tested on: HORVS, Hordeum vulgare (spring barley); experiment: as above
From the text: as §1, §2, §3, §4, §5

[3] = tested on: AMARE, Amaranthus retroflexus (pigweed); experiment: Greenhouse postemergence herbicidal effect (visual injury, 20-22 d)
From the text: as §1, §2, §3, §4, §5

[4] = tested on: BRSNN, Brassica napus (spring rape); experiment: as above
From the text: as §1, §2, §3, §4, §5

[5] = tested on: VIOTR, Viola tricolor (wild pansy); experiment: as above
From the text: as §1, §2, §3, §4, §5

[6] = tested on: STEME, Stellaria media (chickweed); experiment: as above
From the text: as §1, §2, §3, §4, §5

[7] = tested on: MATCH, Matricaria chamomilla (wild chamomile); experiment: as above
From the text: as §1, §2, §3, §4, §5

[8] = tested on: ABUTH, Abutilon theophrasti (velvetleaf); experiment: as above
From the text: as §1, §2, §3, §4, §5

[9] = tested on: BRSNW, Brassica napus (winter rape); experiment: as above
From the text: as §1, §2, §3, §4, §5

[10] = tested on: CHEAL, Chenopodium album L. (common lambsquarters); experiment: as above
From the text: as §1, §2, §3, §4, §5

[11] = tested on: POLCO, Polygonum convolvulus (wild buckwheat); experiment: as above
From the text: as §1, §2, §3, §4, §5

[12] = tested on: EPHHL, Euphorbia heterophylla (poinsettia); experiment: as above
From the text: as §1, §2, §3, §4, §5

[13] = tested on: SETFA, Setaria faberi (giant foxtail); experiment: as above
From the text: as §1, §2, §3, §4, §5

[14] = tested on: KCHSC, Kochia scoparia (kochia); experiment: as above
From the text: as §1, §2, §3, §4, §5

[15] = tested on: SINAR, Sinapis arvensis (wild mustard); experiment: as above
From the text: as §1, §2, §3, §4, §5

[16] = tested on: SASKR, Salsola kali (Russian thistle); experiment: as above
From the text: as §1, §2, §3, §4, §5

[17] = tested on: CIRAR, Cirsium arvense (Canada thistle); experiment: as above
From the text: as §1, §2, §3, §4, §5

SMILES: N#Cc1cc(Br)c(O)c(Br)c1 [Bromoxynil, 3,5-dibromo-4-hydroxbenzonitrile, reference compound]
- visual injury [1]: 0%
- visual injury [2]: 0%
- visual injury [3]: 5%
- visual injury Obs [4]: 3%
- visual injury Obs [5]: 0%
- visual injury Obs [6]: 0%
- visual injury [7]: 5%
- visual injury Obs [8]: 30%
- visual injury [9]: 10%
- visual injury [10]: 0%
- visual injury Obs [10]: 48%
- visual injury [11]: 100%
- pest or weed control at 140 g/ha ([11]; Fallopia convolvulus, post-emergence, read-out: visual injury Obs): 55%
- visual injury Obs [12]: 30%
- visual injury Obs [13]: 0%
- visual injury [14]: 38%
- visual injury Obs [14]: 35%
- visual injury [15]: 10%
- visual injury [16]: 75%
- visual injury [17]: 45%
- visual injury Obs [17]: 60%
